Measured values: US12582677B2, “Methods for producing retinal tissue and retina-related cell” (SUMITOMO CHEMICAL COMPANY, LIMITED, priority 2011, dated 2026)

Tests used:
Assay type in all cases: cell-based
[1] = system: RAX::GFP knock-in human ES cells; assay: Production of retinal tissue from human ES cell aggregates: GFP-expressing (retinal progenitor) cells by fluorescence microscopy and FACS
Experimental: RAX::GFP knock-in human ES cells (derived from KhES-1) were cultured according to the methods described in “Ueno, M. et al. PNAS 2006”, “Watanabe, K. et al. Nat Biotech 2007” and used for the experiment. As the medium, DMEM/F12 medium (Invitrogen) added with 20% KSR (Knockout Serum Replacement; Invitrogen), 0.1 mM 2-mercaptoethanol, 1 mM pyruvic acid, and 5 to 10 ng/ml bFGF was used. The ES cells were dispersed into single cells by using 0.25% trypsin-EDTA (Invitrogen), and floating-cultured in a serum-free medium (100 μl) at 37° C., 5% CO2 to 9×10^3 cells per well of a non-cell adhesive 96-well culture plate (SUMILON spheroid plate, SUMITOMO BAKELITE CO., LTD.). As the serum-free medium in this case, a serum-free medium obtained by adding 20% KSR, 0.1 mM 2-mercaptoethanol, 1 mM pyruvic acid and 20 μM Y27632 to G-MEM medium was used. During the floating culture, Matrigel in an amount of 1/100 per volume was added from day 2 from the start of the floating culture. Thereafter, fluorescence microscopic observation was regularly performed while continuing the floating culture.
RAX::GFP knock-in human ES cells (derived from KhES-1) were cultured according to the methods described in “Ueno, M. et al. PNAS 2006”, “Watanabe, K. et al. Nat Biotech 2007” and used for the experiment. As the medium, DMEM/F12 medium (Invitrogen) added with 20% KSR (Knockout Serum Replacement; Invitrogen), 0.1 mM 2-mercaptoethanol, 1 mM pyruvic acid, and 5-10 ng/ml bFGF was used. For the production of retinal tissue by floating culture, the ES cells were dissociated into single cells by using 0.25% trypsin-EDTA (Invitrogen), and floating-cultured in a serum-free medium (100 μl) at 37° C., 5% CO2 to 9×10^3 cells per well of a non-cell adhesive 96-well culture plate (SUMILON spheroid plate, SUMITOMO BAKELITE CO., LTD.). As the serum-free medium in this case, a serum-free medium obtained by adding 20% KSR, 0.1 mM 2-mercaptoethanol, 1 mM pyruvic acid, 20 μM Y27632 and a substance inhibiting the Nodal signal pathway (10 μM SB431542) to G-MEM medium was used. During the floating culture, Matrigel in an amount of 1/100 per volume was added from day 2 from the start of the floating culture. Thereafter, the floating culture was continued and fluorescence microscopic observation and confirmation of the proportion of the GFP-expressing cells were performed by FACS on day 18 from the start of the floating culture.
RAX::GFP knock-in human ES cells (derived from KhES-1) were cultured according to the methods described in “Ueno, M. et al. PNAS 2006”, “Watanabe, K. et al. Nat Biotech 2007” and used for the experiment. As the medium, DMEM/F12 medium (Invitrogen) added with 20% KSR (Knockout Serum Replacement; Invitrogen), 0.1 mM 2-mercaptoethanol, 1 mM pyruvic acid, and 5 to 10 ng/ml bFGF was used. For the production of retinal tissue by floating culture, the ES cells were dispersed into single cells by using 0.25% trypsin-EDTA (Invitrogen), and floating-cultured in a serum-free medium (100 μl) at 37° C., 5% CO2 to 9×10^3 cells per well of a non-cell adhesive 96-well culture plate (SUMILON spheroid plate, SUMITOMO BAKELITE CO., LTD.). As the serum-free medium in this case, a serum-free medium obtained by adding 20% KSR, 0.1 mM 2-mercaptoethanol, 1 mM pyruvic acid, 20 μM Y27632 and a substance inhibiting the Wnt signal pathway (3 μM IWR1e) to G-MEM medium was used. During the floating culture, Matrigel in an amount of 1/100 per volume was added from day 2 from the start of the floating culture. Thereafter, the floating culture was continued and fluorescence microscopic observation and confirmation of the proportion of the GFP-expressing cells were performed by FACS on day 18 from the start of the floating culture.
RAX::GFP knock-in human ES cells (derived from KhES-1) were cultured according to the methods described in “Ueno, M. et al. PNAS 2006”, “Watanabe, K. et al. Nat Biotech 2007” and used for the experiment. […]

[2] = system: RAX::GFP knock-in human ES cells; assay: Production of optic-cup-like structure from human ES cell aggregates; details: 3 μM CHIR99021 and 100 nM SAG together in serum-containing medium from day 15
Experimental: RAX::GFP knock-in human ES cells (derived from KhES-1) were cultured according to the methods described in “Ueno, M. et al. PNAS 2006”, “Watanabe, K. et al. Nat Biotech 2007” and used for the experiment. As the medium, DMEM/F12 medium (Invitrogen) added with 20% KSR (Knockout Serum Replacement; Invitrogen), 0.1 mM 2-mercaptoethanol, 1 mM pyruvic acid, and 5 to 10 ng/ml bFGF was used. For the formation of aggregate by floating culture, the ES cells were dispersed into single cells by using 0.25% trypsin-EDTA (Invitrogen), suspended in a serum-free medium (100 μl) to 9×10^3 cells per well of a non-cell adhesive 96-well culture plate (SUMILON spheroid plate, SUMITOMO BAKELITE CO., LTD.) to allow for rapid formation of aggregates, and floating cultured at 37° C., 5% CO2. As the serum-free medium in this case, a serum-free medium obtained by adding 20% KSR, 0.1 mM 2-mercaptoethanol, 1 mM pyruvic acid, 20 μM Y27632 and a substance inhibiting the Wnt signal pathway (3 μM IWR1e) to G-MEM medium was used. During the floating culture, Matrigel in an amount of 1/100 per volume was added from day 2 from the start of the floating culture. The floating aggregate was transferred to a serum-free medium without a substance inhibiting the Wnt signal pathway on day 12 from the start of the floating culture, fetal calf serum in an amount of 1/10 per volume was added and the aggregate was cultured. […]

[3] = system: Crx::GFP knock-in human ES cell-derived retinal tissue; assay: Treatment of human ES cell-derived retinal tissue with DAPT: GFP fluorescence, Recoverin and Brn3 immunostaining; details: 10 μM DAPT added day 29
Experimental: CrX::GFP knock-in human ES cells (derived from KhES-1) were cultured according to the methods described in “Ueno, M. et al. PNAS 2006”, “Watanabe, K. et al. Nat Biotech 2007” and used for the experiment. As the medium, DMEM/F12 medium (Invitrogen) added with 20% KSR (Knockout Serum Replacement; Invitrogen), 0.1 mM 2-mercaptoethanol, 1 mM pyruvic acid, and 5 to 10 ng/ml bFGF was used. The ES cells were dispersed into single cells by using 0.25% trypsin-EDTA (Invitrogen), and floating-cultured in a serum-free medium (100 μl) at 37° C., 5% CO2 to 9×10^3 cells per well of a non-cell adhesive 96-well culture plate (SUMILON spheroid plate, SUMITOMO BAKELITE CO., LTD.). As the serum-free medium in this case, a serum-free medium obtained by adding 20% KSR, 0.1 mM 2-mercaptoethanol, 1 mM pyruvic acid, 20 μM Y27632 and a substance inhibiting the Wnt signal pathway (3 μM IWR1e) to G-MEM medium was used. Matrigel was added in an amount of 1/100 per volume from day 2 of the floating culture and floating culture was performed. Fetal calf serum in an amount of 1/10 per volume and a substance acting on the Shh signal pathway (100 nM SAG) were added on day 12 of floating culture and the floating culture was performed to produce a retinal tissue. A substance acting on the Notch signal (10 μM DAPT (gamma secretase activity inhibitor)) was added to the retinal tissue on day 29 from the start of the floating culture, observed with a fluorescence microscope on day 41 from the start of the floating culture (day 12 after the addition), and fixed with 4% para-formaldehyde on day 43 from the start of the floating culture (day 14 after the addition), and a frozen section was prepared. The prepared frozen section was immunostained for Recoverin, which is one of the marker genes of photoreceptor, and Brn3, which is one of the marker genes of ganglion cells, and the results were compared between the presence and absence of DAPT-addition.

[4] = system: human ES cell-derived retinal tissue after freeze-thawing; assay: Treatment of human ES cell-derived retinal tissue after freeze-thawing with DAPT: GFP fluorescence, Recoverin and Brn3 immunostaining; details: tissue freeze-thawed day 33, 10 μM DAPT added day 38
Experimental: RAX::GFP knock-in human ES cells (derived from KhES-1) were cultured according to the methods described in “Ueno, M. et al. PNAS 2006”, “Watanabe, K. et al. Nat Biotech 2007” and used for the experiment. As the medium, DMEM/F12 medium (Invitrogen) added with 20% KSR (Knockout Serum Replacement; Invitrogen), 0.1 mM 2-mercaptoethanol, 1 mM pyruvic acid, and 5 to 10 ng/ml bFGF was used. For the production of retinal tissue by floating culture, the ES cells were dispersed into single cells by using 0.25% trypsin-EDTA (Invitrogen), and floating-cultured in a serum-free medium (100 μl) at 37° C., 5% CO2 to 9×10^3 cells per well of a non-cell adhesive 96-well culture plate (SUMILON spheroid plate, SUMITOMO BAKELITE CO., LTD.). As the serum-free medium in this case, a serum-free medium obtained by adding 20% KSR, 0.1 mM 2-mercaptoethanol, 1 mM pyruvic acid, 20 μM Y27632 and a substance inhibiting the Wnt signal pathway (3 μM IWR1e) to G-MEM medium was used. […] Matrigel was added in an amount of 1/100 per volume from day 2 of the floating culture and floating culture was performed. Fetal calf serum in an amount of 1/10 per volume and a substance acting on the Shh signal pathway (100 nM SAG) were added on day 12 from the start of the floating culture and the floating culture was performed to produce a retinal tissue. The produced retinal tissue on day 33 from the start of the floating culture was freeze-thawed, and a Notch signal action inhibitory substance (10 μM DAPT) was added to the retinal tissue on day 38 from the start of the floating culture. […] The prepared frozen section was immunostained for Recoverin, which is one of the marker genes of photoreceptor, and Brn3, which is one of the marker genes of ganglion cells, and the results were compared between the presence and absence of DAPT-addition.

[5] = 100 nM SAG and fetal calf serum 1/10 added day 12, with 3 μM IWR1e and Matrigel, day 18

SMILES: NC(=O)c1ccc(-c2nc(-c3ccc4c(c3)OCO4)c(-c3ccccn3)[nH]2)cc1 [SB431542]
- GFP-expressing cells (fluorescence microscopic observation) ([1]; 10 μM SB431542 in serum-free medium, Matrigel 1/100 from day 2): somewhat found

SMILES: CNC1CCC(N(Cc2cccc(-c3ccncc3)c2)C(=O)c2sc3ccccc3c2Cl)CC1 (stereo not shown) [SAG]
- GFP-expressing cells (fluorescence microscopic observation) [1, 5]: a very high number of GFP-expressing cells emerged
- proportion of the GFP-expressing cells (FACS) [1, 5]: not less than 70%
- increase of proportion of GFP-expressing cells compared to Comparative Example 3 ([1]; Example 2: serum and 100 nM SAG added simultaneously, with 3 μM IWR1e and Matrigel): about 24 fold
- optic-cup-like structure formation on aggregate [2]: a clear optic-cup-like structure was formed

SMILES: C[C@H](NC(=O)Cc1cc(F)cc(F)c1)C(=O)N[C@H](C(=O)OC(C)(C)C)c1ccccc1 [DAPT, N-[N-(3,5-difluorophenacetyl)-L-alanyl]-S-phenylglycine t-butyl ester]
- ganglion cells (immunostaining of Brn3) ([3]; fixed day 43): increased
- increase of Recoverin-positive cells (immunostaining of frozen section) ([3]; fixed day 43): 3- to 5 fold
- GFP-expressing cells (fluorescence microscope) compared to no DAPT ([3]; observed day 41): markedly increased
- Recoverin-positive cells produced (immunostaining of frozen section) ([4]; day 49): about 5 fold
- ganglion cells (immunostaining of Brn3) ([4]; day 49): produced
- GFP-expressing cells (fluorescence microscope) compared to no DAPT ([4]; observed day 49): markedly produced

SMILES: O=C(Nc1cccc2cccnc12)c1ccc(N2C(=O)[C@@H]3[C@H](C2=O)[C@@H]2C=C[C@H]3C2)cc1 [IWR1e]
- GFP-expressing cells (fluorescence microscopic observation) ([1]; 3 μM IWR1e in serum-free medium, Matrigel 1/100 from day 2, compared to Comparative Examples 1 and 2): clearly increased
- proportion of the GFP-expressing cells (FACS) ([1]; 3 μM IWR1e, Matrigel, no serum (Comparative Example 3), day 18 of floating culture): 3.2%
